Measurements from ChEMBL document CHEMBL5465560, “Selectivity Literature for EUbOPEN Chemogenomic Library” (2024).

Experiments:
[1] = molecular target: Serine/threonine-protein kinase WNK1 (Homo sapiens) (UniProt Q9H4A3); assay: Selectivity interaction (Kinase panel (DSF assay)) EUB0001558a WNK1
MAO-A (MAOA) = MAO-A (MAOA) (Homo sapiens, UniProt P21397); assay: Selectivity interaction (Safety Panel 44tm (Eurofins)) EUB0000162b MAOA; settings: at 10 µM, read-out: % of control
[2] = molecular target: TGF-beta receptor type-2 (Homo sapiens) (UniProt P37173); assay: Selectivity interaction (ProQinase) EUB0000171b TGFBR2
TGF-beta receptor type-2 (Homo sapiens), sequence (P37173 whole entry): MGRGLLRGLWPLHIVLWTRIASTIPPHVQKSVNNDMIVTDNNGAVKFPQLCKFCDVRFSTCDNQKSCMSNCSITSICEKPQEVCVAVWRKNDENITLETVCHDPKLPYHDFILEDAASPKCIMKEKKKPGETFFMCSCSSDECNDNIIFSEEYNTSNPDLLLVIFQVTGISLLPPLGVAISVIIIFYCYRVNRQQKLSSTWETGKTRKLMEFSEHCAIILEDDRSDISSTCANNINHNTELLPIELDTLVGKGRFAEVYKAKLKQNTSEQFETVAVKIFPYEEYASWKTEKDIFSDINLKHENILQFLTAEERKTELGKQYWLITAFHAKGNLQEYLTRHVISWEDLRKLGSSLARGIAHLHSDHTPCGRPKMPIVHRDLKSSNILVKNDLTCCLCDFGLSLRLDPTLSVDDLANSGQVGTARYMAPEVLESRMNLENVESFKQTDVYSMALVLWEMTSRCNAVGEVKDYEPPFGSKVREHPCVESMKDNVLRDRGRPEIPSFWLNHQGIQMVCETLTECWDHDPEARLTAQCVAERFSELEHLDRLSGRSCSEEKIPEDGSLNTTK

[3] = molecular target: Wee1-like protein kinase 2 (Homo sapiens) (UniProt P0C1S8); assay: Selectivity interaction (KinomeScan (DiscoverX)) EUB0001079a WEE2; settings: at 1 µM
[4] = molecular target: T1, Serine/threonine-protein kinase Sgk3 (Homo sapiens) (UniProt Q96BR1); assay: Selectivity interaction (Kinase panel (KiNativ target engagement assay in Jurkat cells)) EUB0001635a SGK3; assay type: cell-based; settings: at 1 µM
T1 sequence (whole entry): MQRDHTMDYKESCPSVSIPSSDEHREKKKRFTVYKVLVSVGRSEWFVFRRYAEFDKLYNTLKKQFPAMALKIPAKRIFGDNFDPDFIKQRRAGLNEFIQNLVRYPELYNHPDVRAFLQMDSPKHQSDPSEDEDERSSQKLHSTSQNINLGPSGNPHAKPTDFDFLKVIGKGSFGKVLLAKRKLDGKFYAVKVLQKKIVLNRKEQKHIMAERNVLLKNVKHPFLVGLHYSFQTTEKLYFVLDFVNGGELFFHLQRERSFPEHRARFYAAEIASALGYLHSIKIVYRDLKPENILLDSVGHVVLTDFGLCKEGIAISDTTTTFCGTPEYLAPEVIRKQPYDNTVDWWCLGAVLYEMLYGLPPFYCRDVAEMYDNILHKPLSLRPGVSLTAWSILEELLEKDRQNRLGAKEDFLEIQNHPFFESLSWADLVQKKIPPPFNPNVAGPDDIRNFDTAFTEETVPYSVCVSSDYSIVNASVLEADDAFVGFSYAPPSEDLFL

[5] = molecular target: Insulin-like growth factor 1 receptor (Homo sapiens, UniProt P08069); settings: at 3 µM
Insulin-like growth factor 1 receptor, sequence (P08069 31-736 limits assumed): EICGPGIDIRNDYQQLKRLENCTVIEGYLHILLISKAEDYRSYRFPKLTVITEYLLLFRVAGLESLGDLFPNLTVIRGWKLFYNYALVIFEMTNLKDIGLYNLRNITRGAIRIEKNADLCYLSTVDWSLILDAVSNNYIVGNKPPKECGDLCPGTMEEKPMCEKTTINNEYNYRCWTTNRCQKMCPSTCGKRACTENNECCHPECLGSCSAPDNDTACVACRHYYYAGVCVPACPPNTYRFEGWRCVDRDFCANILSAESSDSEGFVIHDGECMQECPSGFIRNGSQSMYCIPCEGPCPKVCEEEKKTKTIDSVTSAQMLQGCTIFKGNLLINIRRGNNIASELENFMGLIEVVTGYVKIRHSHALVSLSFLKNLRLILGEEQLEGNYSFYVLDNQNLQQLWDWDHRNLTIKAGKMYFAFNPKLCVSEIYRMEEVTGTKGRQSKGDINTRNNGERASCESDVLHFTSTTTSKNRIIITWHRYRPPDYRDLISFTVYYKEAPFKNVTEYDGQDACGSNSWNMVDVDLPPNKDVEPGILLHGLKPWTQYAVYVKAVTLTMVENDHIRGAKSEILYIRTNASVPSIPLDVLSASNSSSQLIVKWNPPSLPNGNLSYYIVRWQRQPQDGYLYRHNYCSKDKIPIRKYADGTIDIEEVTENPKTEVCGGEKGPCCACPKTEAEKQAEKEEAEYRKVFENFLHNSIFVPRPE
Insulin-like growth factor 1 receptor, sequence (P08069 741-1367 limits assumed): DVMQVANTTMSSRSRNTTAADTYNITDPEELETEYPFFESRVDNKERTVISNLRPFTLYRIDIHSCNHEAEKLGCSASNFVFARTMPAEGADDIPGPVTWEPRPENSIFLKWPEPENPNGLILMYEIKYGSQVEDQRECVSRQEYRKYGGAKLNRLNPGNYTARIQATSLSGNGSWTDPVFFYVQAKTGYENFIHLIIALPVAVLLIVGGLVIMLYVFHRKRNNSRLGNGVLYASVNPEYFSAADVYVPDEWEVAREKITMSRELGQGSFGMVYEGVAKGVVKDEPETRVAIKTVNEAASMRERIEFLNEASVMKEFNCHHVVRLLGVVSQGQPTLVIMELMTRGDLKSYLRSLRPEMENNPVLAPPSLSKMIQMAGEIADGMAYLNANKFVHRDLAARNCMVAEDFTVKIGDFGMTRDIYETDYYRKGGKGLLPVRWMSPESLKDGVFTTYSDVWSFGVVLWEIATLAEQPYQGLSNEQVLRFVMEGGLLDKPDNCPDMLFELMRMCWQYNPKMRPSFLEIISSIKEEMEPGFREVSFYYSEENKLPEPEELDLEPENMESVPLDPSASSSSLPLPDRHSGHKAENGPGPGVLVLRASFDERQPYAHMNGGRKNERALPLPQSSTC

[6] = molecular target: Receptor-type tyrosine-protein kinase FLT3 (Homo sapiens) (UniProt P36888); settings: at 10 µM
Receptor-type tyrosine-protein kinase FLT3 (Homo sapiens), sequence (P36888 whole entry): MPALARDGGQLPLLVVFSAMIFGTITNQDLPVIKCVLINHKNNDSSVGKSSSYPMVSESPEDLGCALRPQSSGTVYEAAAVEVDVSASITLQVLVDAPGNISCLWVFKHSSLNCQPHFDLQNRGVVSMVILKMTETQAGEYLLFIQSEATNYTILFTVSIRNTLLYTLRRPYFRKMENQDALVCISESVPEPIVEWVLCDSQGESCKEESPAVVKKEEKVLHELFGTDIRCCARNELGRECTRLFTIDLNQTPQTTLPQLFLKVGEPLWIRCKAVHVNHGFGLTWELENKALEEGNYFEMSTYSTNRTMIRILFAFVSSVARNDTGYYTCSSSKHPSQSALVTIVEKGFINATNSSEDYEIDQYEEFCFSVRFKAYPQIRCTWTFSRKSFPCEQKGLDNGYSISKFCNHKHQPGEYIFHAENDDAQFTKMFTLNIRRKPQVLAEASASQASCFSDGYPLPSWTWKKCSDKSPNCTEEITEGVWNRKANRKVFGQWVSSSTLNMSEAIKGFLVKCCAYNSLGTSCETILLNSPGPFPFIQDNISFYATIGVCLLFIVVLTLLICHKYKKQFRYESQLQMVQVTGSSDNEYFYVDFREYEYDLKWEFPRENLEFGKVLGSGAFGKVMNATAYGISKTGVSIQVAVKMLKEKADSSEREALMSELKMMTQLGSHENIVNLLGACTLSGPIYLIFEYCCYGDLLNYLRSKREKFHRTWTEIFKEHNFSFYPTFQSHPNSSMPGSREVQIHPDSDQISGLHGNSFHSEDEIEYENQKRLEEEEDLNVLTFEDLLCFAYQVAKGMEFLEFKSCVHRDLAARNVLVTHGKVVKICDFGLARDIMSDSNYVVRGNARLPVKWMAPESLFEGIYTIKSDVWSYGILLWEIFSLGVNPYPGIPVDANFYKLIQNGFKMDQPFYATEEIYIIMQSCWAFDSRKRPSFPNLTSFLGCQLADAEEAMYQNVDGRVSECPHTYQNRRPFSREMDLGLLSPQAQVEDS

[7] = molecular target: Tyrosine-protein kinase BTK (Homo sapiens, UniProt Q06187); assay: Selectivity interaction (ActivX KiNativ screen (kinase selectivity in THP-1 cell lysates)) EUB0000639a BTK; assay type: subcellular; settings: lysate
Tyrosine-protein kinase BTK, sequence (Q06187 whole entry): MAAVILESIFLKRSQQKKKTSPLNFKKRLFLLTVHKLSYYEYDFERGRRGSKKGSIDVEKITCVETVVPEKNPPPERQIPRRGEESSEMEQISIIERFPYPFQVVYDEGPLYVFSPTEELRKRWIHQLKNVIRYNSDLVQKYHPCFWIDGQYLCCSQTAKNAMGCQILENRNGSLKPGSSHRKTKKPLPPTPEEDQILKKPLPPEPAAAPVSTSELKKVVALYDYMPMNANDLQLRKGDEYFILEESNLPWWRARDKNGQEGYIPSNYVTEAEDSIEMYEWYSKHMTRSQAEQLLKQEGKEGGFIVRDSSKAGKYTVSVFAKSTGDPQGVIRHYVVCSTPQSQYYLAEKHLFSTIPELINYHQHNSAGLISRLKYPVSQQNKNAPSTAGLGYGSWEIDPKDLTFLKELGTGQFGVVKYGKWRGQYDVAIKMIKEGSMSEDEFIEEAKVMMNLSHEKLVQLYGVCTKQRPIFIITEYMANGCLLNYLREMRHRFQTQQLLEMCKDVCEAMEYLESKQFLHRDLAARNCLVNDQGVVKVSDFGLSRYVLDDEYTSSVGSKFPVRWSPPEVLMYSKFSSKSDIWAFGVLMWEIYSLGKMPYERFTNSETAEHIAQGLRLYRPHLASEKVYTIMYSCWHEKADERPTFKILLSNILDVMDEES

[8] = molecular target: Calcium/calmodulin-dependent protein kinase type II subunit beta (Homo sapiens) (UniProt Q13554); assay: Selectivity interaction (ActivX KiNativ screen (kinase selectivity in THP-1 cell lysates)) EUB0000639a CAMK2B; assay type: subcellular; settings: lysate, at 0.01 µM
[9] = molecular target: T2, Serine/threonine-protein kinase D2 (Homo sapiens) (UniProt Q9BZL6); assay: Selectivity interaction (ActivX KiNativ screen (kinase selectivity in THP-1 cell lysates)) EUB0000639a PRKD2; assay type: subcellular; settings: lysate, at 0.01 µM
T2 sequence (whole entry): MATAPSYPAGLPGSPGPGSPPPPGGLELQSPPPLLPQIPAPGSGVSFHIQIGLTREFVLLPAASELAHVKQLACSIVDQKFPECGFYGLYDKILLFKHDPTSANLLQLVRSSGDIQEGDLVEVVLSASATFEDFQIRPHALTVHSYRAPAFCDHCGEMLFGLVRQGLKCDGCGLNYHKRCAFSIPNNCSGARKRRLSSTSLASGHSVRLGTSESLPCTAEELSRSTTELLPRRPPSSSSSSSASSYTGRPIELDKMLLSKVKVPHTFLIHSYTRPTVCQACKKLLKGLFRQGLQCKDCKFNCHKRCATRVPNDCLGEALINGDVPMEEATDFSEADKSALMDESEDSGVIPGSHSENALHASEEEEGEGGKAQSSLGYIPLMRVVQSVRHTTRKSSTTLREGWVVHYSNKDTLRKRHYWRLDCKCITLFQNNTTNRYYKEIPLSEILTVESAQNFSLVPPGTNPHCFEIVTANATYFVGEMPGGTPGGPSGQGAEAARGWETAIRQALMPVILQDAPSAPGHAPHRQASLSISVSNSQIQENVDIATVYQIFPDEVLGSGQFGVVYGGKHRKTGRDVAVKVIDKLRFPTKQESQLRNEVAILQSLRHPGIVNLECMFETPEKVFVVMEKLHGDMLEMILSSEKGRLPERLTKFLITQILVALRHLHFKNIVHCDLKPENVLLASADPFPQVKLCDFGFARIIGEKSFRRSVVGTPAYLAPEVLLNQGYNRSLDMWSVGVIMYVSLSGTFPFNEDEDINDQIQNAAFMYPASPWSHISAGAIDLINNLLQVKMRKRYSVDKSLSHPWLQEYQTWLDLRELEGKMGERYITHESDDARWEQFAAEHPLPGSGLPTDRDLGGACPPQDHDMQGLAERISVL

[10] = molecular target: 5'-AMP-activated protein kinase catalytic subunit alpha-1 (Homo sapiens, UniProt Q13131); assay: Selectivity interaction (ActivX KiNativ screen (kinase selectivity in THP-1 cell lysates)) EUB0000639a PRKAA1; assay type: subcellular; settings: lysate, at 1 µM
[11] = molecular target: Protein-tyrosine kinase 2-beta (Homo sapiens) (UniProt Q14289); assay: Selectivity interaction (ActivX KiNativ screen (kinase selectivity in THP-1 cell lysates)) EUB0000639a PTK2B; assay type: subcellular; settings: lysate, at 0.2 µM
[12] = molecular target: Insulin receptor-related protein (Homo sapiens) (UniProt P14616); assay: Selectivity interaction (KinomeScan (DiscoverX)) EUB0000695a INSRR; settings: at 100 nM
[13] = molecular target: Cyclin-dependent kinase 14 (Homo sapiens) (UniProt O94921); assay: Selectivity interaction (KinomeScan (DiscoverX)) EUB0000595a CDK14; settings: at 10 µM
[14] = molecular target: Tyrosine-protein kinase Fyn (Homo sapiens) (UniProt P06241); assay: Selectivity interaction (KinomeScan (DiscoverX)) EUB0000618a FYN; settings: at 10 µM
Tyrosine-protein kinase Fyn (Homo sapiens), sequence (P06241 2-537 limits assumed): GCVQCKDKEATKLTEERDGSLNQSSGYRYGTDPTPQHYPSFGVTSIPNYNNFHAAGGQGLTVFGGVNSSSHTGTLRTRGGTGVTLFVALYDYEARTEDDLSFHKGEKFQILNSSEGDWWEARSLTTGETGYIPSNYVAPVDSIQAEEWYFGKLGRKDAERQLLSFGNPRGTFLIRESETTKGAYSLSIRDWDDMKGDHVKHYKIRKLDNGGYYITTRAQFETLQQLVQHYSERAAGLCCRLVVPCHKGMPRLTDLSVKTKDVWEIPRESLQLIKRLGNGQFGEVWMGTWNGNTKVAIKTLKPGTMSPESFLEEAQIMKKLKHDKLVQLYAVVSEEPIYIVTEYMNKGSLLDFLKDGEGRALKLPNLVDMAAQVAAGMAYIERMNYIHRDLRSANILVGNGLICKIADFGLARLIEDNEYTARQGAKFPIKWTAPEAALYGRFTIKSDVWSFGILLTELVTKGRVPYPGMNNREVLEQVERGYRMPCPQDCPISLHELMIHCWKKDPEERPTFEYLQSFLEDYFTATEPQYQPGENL

[15] = molecular target: Homeodomain-interacting protein kinase 1 (Homo sapiens, UniProt Q86Z02); assay: Selectivity interaction (KinomeScan (DiscoverX)) EUB0001619a HIPK1; settings: at 1 µM

MAO-A (MAOA), sequence (P21397 whole entry): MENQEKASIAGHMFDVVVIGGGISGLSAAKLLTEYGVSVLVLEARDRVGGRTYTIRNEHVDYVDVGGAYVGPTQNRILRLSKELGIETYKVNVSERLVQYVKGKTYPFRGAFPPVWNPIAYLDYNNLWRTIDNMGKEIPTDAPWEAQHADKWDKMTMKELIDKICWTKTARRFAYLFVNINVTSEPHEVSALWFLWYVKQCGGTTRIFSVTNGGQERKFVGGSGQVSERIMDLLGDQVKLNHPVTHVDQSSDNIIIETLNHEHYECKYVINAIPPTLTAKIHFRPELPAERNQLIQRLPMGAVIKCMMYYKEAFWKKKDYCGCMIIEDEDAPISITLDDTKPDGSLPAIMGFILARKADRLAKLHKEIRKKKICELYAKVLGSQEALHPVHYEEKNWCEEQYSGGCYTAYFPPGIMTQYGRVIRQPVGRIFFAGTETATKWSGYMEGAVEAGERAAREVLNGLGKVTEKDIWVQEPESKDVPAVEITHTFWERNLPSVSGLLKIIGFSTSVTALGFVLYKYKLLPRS

## CC(C)(O)[C@H](F)CN1Cc2cc(NC(=O)c3cnn4cccnc34)c(N3CCOCC3)cc2C1=O
[1]
  dTM: -0.2 K

## CN(C)C(=O)Cn1cc(-c2ccc(-c3cncc4ccccc34)cc2)cn1
MAO-A (MAOA)
  activity: 30%

## C=CC(=O)Nc1cccc(C(=O)Nc2ccc(Nc3cc(-c4[nH]c(SC)nc4C)ccn3)cc2)c1
[2]; at 1 µM
  % of control: 53%
[2]; at 5 µM
  % of control: 4%

## Nc1cnc(N2CCc3cc(S(=O)(=O)Nc4c(F)cc(Cl)cc4F)cc(N4CCCC4=O)c32)nc1 [TP-020n]
[3]
  % of control: 93%

## C=CC(=O)Nc1ccc(C(=O)Nc2[nH]nc3c2CN(C(=O)N[C@H](CN(C)C)c2ccccc2)C3(C)C)cc1
[4]; Selectivity number of off-targets 0.0, Selectivity number of targets 233.0, Source Knowledge https://www.sciencedirect.com/science/article/pii/S2451945619300674?via%3Dihub
  % of engagement: 15.8%
[4]
  % of engagement: 6.4%

## CCc1cc(Nc2nccc(-c3c(-c4ccc(OC)c(C(=O)Nc5c(F)cccc5F)c4)nc4ccccn34)n2)c(OC)cc1N1CCC(N2CCN(S(C)(=O)=O)CC2)CC1
[5]
  % of inhibition: 100%

## Cc1cc([C@@H](C)Nc2ccccc2C(=O)O)c2nc(N3CCOCC3)cc(=O)n2c1 [AZD-6482]
[6]
  % of control: 13%

## CC[C@@H]1[C@H](F)C(=O)N[C@@H]1COc1nccc2cc(C(N)=O)c(OC)cc12 [ZIMLOVISERTIB]
[7]; at 0.01 µM
  % of inhibition: -9.7%
[7]; at 0.04 µM
  % of inhibition: -8.8%
[7]; at 0.2 µM
  % of inhibition: 2.6%
[7]; at 1 µM
  % of inhibition: 11.9%
[7]; at 5 µM
  % of inhibition: 0.7%
[8]
  % of inhibition: 1.4%
[9]
  % of inhibition: -7.2%
[10]
  % of inhibition: 5.9%
[11]
  % of inhibition: -18.6%

## Cc1cc(F)c(C(=O)Nc2cccc(-c3nncn3C(C)C)n2)cc1-n1cnc(C2CC2)c1
[12]
  % of control: 88%

## COCC(=O)NC/C=C/c1ccc2ncnc(Nc3ccc(Oc4ccc(C)nc4)c(C)c3)c2c1 [CP-724714]
[13]
  % of control: 100%

## O[C@H]1CC[C@H](Nc2ncc3nc(Nc4c(F)cc(F)cc4F)n([C@H]4CCOC4)c3n2)CC1
[14]
  % of control: 100%

## N#Cc1cccc(-c2c[nH]c3ncnc(N4CCOCC4)c23)c1
[15]
  % of control: 77%
